Data taken from publication PMC2219267 (The Journal of General Physiology, 1996).
Like-named read-outs stand apart in the source and are kept apart here.

Experiments:
band 3 [1] = molecular target: T1, band 3 (Homo sapiens, UniProt P02730); assay: 36Cl exchange flux inhibition in red blood cells, Dixon plots; assay type: cell-based; conditions: for Kd: read-out: Average KoI (SE)
T1 sequence (P02730 1-911): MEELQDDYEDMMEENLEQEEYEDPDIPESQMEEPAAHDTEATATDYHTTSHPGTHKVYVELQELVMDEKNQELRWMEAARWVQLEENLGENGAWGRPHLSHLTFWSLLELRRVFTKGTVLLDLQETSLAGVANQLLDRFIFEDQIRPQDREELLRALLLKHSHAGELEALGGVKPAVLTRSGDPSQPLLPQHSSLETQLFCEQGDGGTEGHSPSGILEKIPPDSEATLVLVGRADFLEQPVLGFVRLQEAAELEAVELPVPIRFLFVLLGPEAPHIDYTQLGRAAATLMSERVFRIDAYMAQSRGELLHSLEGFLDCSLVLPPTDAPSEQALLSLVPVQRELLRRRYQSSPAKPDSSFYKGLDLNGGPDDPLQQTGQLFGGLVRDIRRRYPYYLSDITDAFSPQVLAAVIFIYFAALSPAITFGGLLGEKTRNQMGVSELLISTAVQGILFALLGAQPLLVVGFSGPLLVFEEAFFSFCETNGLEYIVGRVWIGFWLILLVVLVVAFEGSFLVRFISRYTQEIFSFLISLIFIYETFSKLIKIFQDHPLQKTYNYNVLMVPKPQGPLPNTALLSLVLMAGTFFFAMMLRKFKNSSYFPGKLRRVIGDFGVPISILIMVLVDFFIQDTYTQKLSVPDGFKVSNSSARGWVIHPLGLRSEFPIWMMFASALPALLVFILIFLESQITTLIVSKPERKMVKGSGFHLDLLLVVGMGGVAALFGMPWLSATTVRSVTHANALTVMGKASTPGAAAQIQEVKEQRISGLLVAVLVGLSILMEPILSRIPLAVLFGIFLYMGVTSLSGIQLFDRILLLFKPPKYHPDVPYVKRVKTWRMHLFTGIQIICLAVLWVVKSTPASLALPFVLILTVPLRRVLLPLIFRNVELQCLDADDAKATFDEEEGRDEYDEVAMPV

band 3 [2] = molecular target: T1, band 3; conditions: cited from earlier work
[3] = exp 86, pHo 11.6, sucrose, Clo 30 mM
[4] = exp 86, pHo 11.6, sucrose, Clo 200 mM
[5] = exp N223, pHo 7.2, citrate, Clo 1.05 mM
[6] = exp N223, pHo 7.2, citrate, Clo 2.07 mM
[7] = exp N223, pHo 7.2, citrate, Clo 145 mM
[8] = exp N225, pHo 7.2, citrate, Clo 2.07 mM
[9] = exp N225, pHo 7.2, citrate, Clo 4.14 mM
[10] = exp N225, pHo 7.2, citrate, Clo 130 mM

[I-].[K+] [iodide, potassium iodide]
ID50 for iodide in the medium with low Cl- concentration (band 3 [1]; exp 85, pHo 7.2, 0°C, Hepes, Cli 133 mM, low Clo 0.3 mM): 1.80 mM
ID50 for iodide in the medium with low Cl- concentration (band 3 [1]; exp 86, pHo 11.6, 0°C, CAPS, Cli 295 mM, low Clo 30 mM): 63.3 mM
DS·Clo (Dixon slope times [Clo]) (band 3 [1]; [3]): 0.2098
Dixon slope (DS) for Io inhibition of Cl- exchange (band 3 [1]; [3]): 0.00699
High/low: DS·Clo at the highest [Clo] divided by that at the given [Clo] (band 3 [1]; [3]): 1.12
DS·Clo (Dixon slope times [Clo]) (band 3 [1]; [4]): 0.2354
Dixon slope (DS) for Io inhibition of Cl- exchange (band 3 [1]; [4]): 0.00118
ID50 for iodide in the medium with low Cl- concentration (band 3 [1]; exp 86, pHo 12.4, 0°C, CAPS, Cli 295 mM, low Clo 30 mM): 88.5 mM
DS·Clo (Dixon slope times [Clo]) (band 3 [1]; exp 86, pHo 12.4, Clo 30 mM): 0.3617
Dixon slope (DS) for Io inhibition of Cl- exchange (band 3 [1]; exp 86, pHo 12.4, Clo 30 mM): 0.01206
High/low: DS·Clo at the highest [Clo] divided by that at the given [Clo] (band 3 [1]; exp 86, pHo 12.4, Clo 30 mM): 1.08
DS·Clo (Dixon slope times [Clo]) (band 3 [1]; exp 86, pHo 12.4, Clo 200 mM): 0.3918
Dixon slope (DS) for Io inhibition of Cl- exchange (band 3 [1]; exp 86, pHo 12.4, Clo 200 mM): 0.001959
ID50 for iodide in the medium with low Cl- concentration (band 3 [1]; exp 87, pHo 11.9, 0°C, CAPS, Cli 294 mM, low Clo 30 mM): 83.8 mM
ID50 for iodide in the medium with low Cl- concentration (band 3 [1]; exp 87, pHo 12.4, 0°C, CAPS, Cli 294 mM, low Clo 30 mM): 92.5 mM
DS·Clo (Dixon slope times [Clo]) (band 3 [1]; exp 87, pHo 12.4, Clo 30 mM): 0.3492
Dixon slope (DS) for Io inhibition of Cl- exchange (band 3 [1]; exp 87, pHo 12.4, Clo 30 mM): 0.01164
High/low: DS·Clo at the highest [Clo] divided by that at the given [Clo] (band 3 [1]; exp 87, pHo 12.4, Clo 30 mM): 0.81
DS·Clo (Dixon slope times [Clo]) (band 3 [1]; exp 87, pHo 12.4, Clo 200 mM): 0.2824
Dixon slope (DS) for Io inhibition of Cl- exchange (band 3 [1]; exp 87, pHo 12.4, Clo 200 mM): 0.001412
ID50 for iodide in the medium with low Cl- concentration (band 3 [1]; exp 89, pHo 11.9, 0°C, CAPS, Cli 304 mM, low Clo 30 mM): 91.8 mM
ID50 for iodide in the medium with low Cl- concentration (band 3 [1]; exp 89, pHo 12, 0°C, No buffer, Cli 304 mM, low Clo 30 mM): 128.5 mM
DS·Clo (Dixon slope times [Clo]) (band 3 [1]; [5]): 0.0854
Dixon slope (DS) for Io inhibition of Cl- exchange (band 3 [1]; [5]): 0.081
High/low: DS·Clo at the highest [Clo] divided by that at the given [Clo] (band 3 [1]; [5]): 3.96
DS·Clo (Dixon slope times [Clo]) (band 3 [1]; [6]): 0.1048
Dixon slope (DS) for Io inhibition of Cl- exchange (band 3 [1]; [6]): 0.0506
High/low: DS·Clo at the highest [Clo] divided by that at the given [Clo] (band 3 [1]; [6]): 3.22
DS·Clo (Dixon slope times [Clo]) (band 3 [1]; [7]): 0.338
Dixon slope (DS) for Io inhibition of Cl- exchange (band 3 [1]; [7]): 0.00233
DS·Clo (Dixon slope times [Clo]) (band 3 [1]; [8]): 0.0724
Dixon slope (DS) for Io inhibition of Cl- exchange (band 3 [1]; [8]): 0.0349
High/low: DS·Clo at the highest [Clo] divided by that at the given [Clo] (band 3 [1]; [8]): 3.66
DS·Clo (Dixon slope times [Clo]) (band 3 [1]; [9]): 0.0907
Dixon slope (DS) for Io inhibition of Cl- exchange (band 3 [1]; [9]): 0.0219
High/low: DS·Clo at the highest [Clo] divided by that at the given [Clo] (band 3 [1]; [9]): 2.92
DS·Clo (Dixon slope times [Clo]) (band 3 [1]; [10]): 0.2652
Dixon slope (DS) for Io inhibition of Cl- exchange (band 3 [1]; [10]): 0.00204
1/R, ratio of dissociation constants alkaline/neutral state (band 3 [1]; our value): 69
apparent ID50 for I- as an inhibitor of Cl- exchange (band 3 [1]; pH 10.6, 1.65 mM [Clo]): 23.6 ± 2.1 mM
y intercept of ID50 for Io vs [Clo] (should give KoI) (band 3 [1]; pHi and pHo 7.2, 0°C, Cli ~150 mM, media with 5 mM Hepes, Fig. 5): 2.0 ± 0.2 mM
y intercept of Dixon slope for Io inhibition vs 1/[Clo] (band 3 [1]; pHo 7.2, 25 mM K3citrate plus sucrose replacing Cl-, Fig. 4B): 0.0017 kg Hb·s·mmol-1·mM-1
y intercept of Dixon slope for Io inhibition vs 1/[Clo] (band 3 [1]; pHo 7.2, sucrose replacing Clo, Fig. 4A): 0.006 kg Hb·s·mmol-1·mM-1
Kd (band 3 [1]; pHo 7.2, 0°C): 0.83 mM
Kd (band 3 [1]; pHo 8.0, 0°C): 0.45 mM
Kd (band 3 [1]; pHo 8.5, 0°C): 1.01 mM
Kd (band 3 [1]; pHo 8.66, 0°C): 1.26 mM
Kd (band 3 [1]; pHo 9.2, 0°C): 2.6 mM
Kd (band 3 [1]; pHo 9.9, 0°C): 5.63 mM
Kd (band 3 [1]; pHo 10, 0°C): 6.48 mM
Kd (band 3 [1]; pHo 10.6, 0°C): 18.4 mM
Kd (band 3 [1]; pHo 10.7, 0°C): 16.4 mM
Kd (band 3 [1]; pHo 11.6, 0°C): 35.8 mM
Kd (band 3 [1]; pHo 11.9, 0°C): 75.6 mM
Kd (band 3 [1]; pHo 12.4, 0°C): 73.4 mM
R = K++I/K+I, ratio of I- dissociation constants for neutral and alkaline forms (band 3 [1]; two-titratable-site fit to KoI data): 0.0145
transport rate relative to Cl- (band 3 [2]; 0°C, pH 7.4, ref Dalmark and Wieth, 1972): 260 times slower
1/R, ratio of dissociation constants alkaline/neutral state (band 3 [2]; ref Bjerrum (1992)): 35.8
R = K++I/K+I, ratio of I- dissociation constants for neutral and alkaline forms (band 3 [2]; ref Bjerrum (1992)): 0.0279
